Experimental data: article PMC6917776, “Discovery of a chemical probe for PRDM9” (Nature Communications, 2019)
Where “and” joins values, the source holds several entries; their conditions need not be identical. Equal entries are not always repeated.

Tests used:
PRDM9 [1] = target: T1, PRDM9 (Homo sapiens, UniProt Q9NQV7); experiment: PRDM9 cellular assay: H3K4me3 of exogenous H3-GFP in MCF7 cells (western blot); format: cell-based; details: for H3K4me3/GFP - western blot: MCF7, 20 h, replicates
Protocol: HEK293T (kind gift from Sam Benchimol, York University), or MCF7 (ATCC® HTB-22™), cells were plated (12 well plates) and next day co-transfected with 0.1 (HEK293T) or 0.2 (MCF7) µg of GFP-tagged histone H3 and with 0.1 (HEK293T) or 0.2 (MCF7) µg of Flag-tagged PRDM9/PRDM9 catalytic mutant (Y357S) and 0.8 or 0.6 µg of empty vector using JetPRIME® transfection reagent, following manufacturer instructions. After 4 h media was removed and cells were treated with compounds for 20 h. Next day, cells were lysed in lysis buffer (20 mM Tris-HCl pH 8, 150 mM NaCl, 1 mM EDTA, 10 mM MgCl2, 0.5% TritonX-100, 12.5 U mL^−1 benzonase (Sigma), complete EDTA-free protease inhibitor cocktail (Roche)). After 2 min incubation at RT, SDS was added to final 1% concentration. Cell lysates were analyzed in western blot for GFP and H3K4me3 levels. All cell lines were mycoplasma negative, as determined by MycoAlert™ Mycoplasma Detection Kit (Lonza).
Total cell lysates were resolved in 4–12% Bis-Tris Protein Gels (Invitrogen) and transferred in for 1.5 h (80 V) onto PVDF membrane (Millipore) in Tris-Glycine transfer buffer containing 20% MeOH and 0.05% SDS. Blots were blocked for 1 h in blocking buffer (5% milk in PBS) and incubated with primary antibodies anti-GFP (1:3000, Clontech # 632381), anti-H3K4me3 (1:1000, Millipore, #04-745), anti-histone H3 (1:2000, #ab10799, Abcam), anti-Flag (1:5000, #F4799, Sigma) in blocking buffer (5% BSA in 0.1% Tween 20 PBS) overnight at 4 °C. After five washes with 0.1% Tween 20 PBS the blots were incubated with goat-anti rabbit (IR800) and donkey anti-mouse (IR 680) antibodies (1:5000) in Odyssey Blocking Buffer (LiCor) for 1 h at RT and washed five times with 0.1% Tween 20 PBS. The signal was read on an Odyssey scanner (LiCor) at 800 nm and 700 nm and analyzed with Image Studio Ver.5.2 software. […]
exogenous histone H3 in MCF7 cells. […]
dependent K4 trimethylation of exogenous histone H3 in MCF7 cells. Cells were co-transfected with H3-GFP and PRDM9-FLAG and treated with compounds at indicated concentrations for 20 h. (b) The graph represents non-linear fit of H3K4me3 fluorescence intensities normalized to intensities of GFP. The results are from two independent experiments (n=2). Source data are provided as a Source Data file.
(1 picture or pasted object on this page, not shown here)

Opiate µ receptor = target: T2, Opiate µ receptor (Homo sapiens, UniProt P35372); experiment: Eurofins Panlabs panel, radioligand binding; details: at 10 µM
T2 construct: Eurofins Panlabs Discovery Services, Taiwan

PRDM9 [2] = target: T1, PRDM9; experiment: DSF thermal stabilisation, PRDM selectivity and titration; format: binding
Protocol: DSF measurements were performed as previously described[21] using a Light Cycler 480 II instrument from Roche Applied Science. […] Sypro Orange was purchased from Invitrogen as a 5000 × stock solution (concentration not specified by vendor) and was diluted 1:1000 to yield a 5 × working concentration. The temperature scan curves were fitted to a Boltzmann sigmoid function, and the Tm values were obtained from the midpoint of the transition.

[3] = MRK-740 0.244141 uM, in the absence of SAM
[4] = MRK-740 0.244141 uM, in the presence of 2 mM of SAM
[5] = MRK-740 0.488281 uM, in the absence of SAM
[6] = MRK-740 0.488281 uM, in the presence of 2 mM of SAM
[7] = MRK-740 0.976563 uM, in the absence of SAM
[8] = MRK-740 0.976563 uM, in the presence of 2 mM of SAM
[9] = MRK-740 1.95312 uM, in the absence of SAM
[10] = MRK-740 1.95312 uM, in the presence of 2 mM of SAM
[11] = MRK-740 3.90625 uM, in the absence of SAM
[12] = MRK-740 3.90625 uM, in the presence of 2 mM of SAM
[13] = MRK-740 7.8125 uM, in the absence of SAM
[14] = MRK-740 7.8125 uM, in the presence of 2 mM of SAM
[15] = MRK-740 15.625 uM, in the absence of SAM
[16] = MRK-740 15.625 uM, in the presence of 2 mM of SAM
[17] = MRK-740 31.25 uM, in the absence of SAM
[18] = MRK-740 31.25 uM, in the presence of 2 mM of SAM
[19] = MRK-740 62.5 uM, in the absence of SAM
[20] = MRK-740 62.5 uM, in the presence of 2 mM of SAM
[21] = MRK-740 125 uM, in the absence of SAM
[22] = MRK-740 125 uM, in the presence of 2 mM of SAM
[23] = MRK-740 250 uM, in the absence of SAM
[24] = MRK-740 250 uM, in the presence of 2 mM of SAM
[25] = MRK-740 500 uM, in the absence of SAM
[26] = MRK-740 500 uM, in the presence of 2 mM of SAM

T1 sequence (Q9NQV7 whole entry): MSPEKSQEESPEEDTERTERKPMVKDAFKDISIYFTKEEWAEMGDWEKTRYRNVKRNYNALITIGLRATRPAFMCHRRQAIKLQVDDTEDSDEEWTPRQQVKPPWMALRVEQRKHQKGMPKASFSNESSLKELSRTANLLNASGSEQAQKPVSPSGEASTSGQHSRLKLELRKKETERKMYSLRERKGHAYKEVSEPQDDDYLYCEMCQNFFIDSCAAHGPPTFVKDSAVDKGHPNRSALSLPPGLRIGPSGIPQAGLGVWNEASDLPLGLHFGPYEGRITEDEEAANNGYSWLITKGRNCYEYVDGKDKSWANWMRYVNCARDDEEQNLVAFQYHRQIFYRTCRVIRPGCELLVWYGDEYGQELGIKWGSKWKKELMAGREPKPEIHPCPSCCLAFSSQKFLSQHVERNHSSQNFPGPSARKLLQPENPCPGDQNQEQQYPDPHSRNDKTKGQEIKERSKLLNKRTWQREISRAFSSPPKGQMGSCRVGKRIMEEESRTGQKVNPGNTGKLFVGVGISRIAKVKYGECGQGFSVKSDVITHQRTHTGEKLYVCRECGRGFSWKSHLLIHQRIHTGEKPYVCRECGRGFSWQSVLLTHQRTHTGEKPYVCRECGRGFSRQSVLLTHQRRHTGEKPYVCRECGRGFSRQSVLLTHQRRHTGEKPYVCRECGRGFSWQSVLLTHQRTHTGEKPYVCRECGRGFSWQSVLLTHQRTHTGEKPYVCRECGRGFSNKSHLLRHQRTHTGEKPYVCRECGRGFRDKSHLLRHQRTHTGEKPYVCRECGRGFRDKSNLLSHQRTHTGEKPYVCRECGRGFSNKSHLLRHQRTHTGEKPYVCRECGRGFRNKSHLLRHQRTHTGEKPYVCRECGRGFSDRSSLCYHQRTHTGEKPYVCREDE
T2 sequence (P35372 whole entry): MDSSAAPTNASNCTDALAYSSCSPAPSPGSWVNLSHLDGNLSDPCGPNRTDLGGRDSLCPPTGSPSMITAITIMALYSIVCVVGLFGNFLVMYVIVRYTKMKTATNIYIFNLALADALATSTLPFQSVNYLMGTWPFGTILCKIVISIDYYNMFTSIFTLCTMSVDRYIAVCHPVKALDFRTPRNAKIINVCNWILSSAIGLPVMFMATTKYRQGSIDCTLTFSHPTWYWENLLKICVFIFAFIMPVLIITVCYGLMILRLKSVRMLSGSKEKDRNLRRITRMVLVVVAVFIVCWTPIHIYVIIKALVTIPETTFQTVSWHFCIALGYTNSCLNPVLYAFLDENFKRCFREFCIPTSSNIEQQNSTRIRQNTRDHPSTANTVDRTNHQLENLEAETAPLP

COc1cc(OC)cc(-c2noc(N3CCN(C)C4(CCN(c5ccnc(C)c5)CC4)C3)n2)c1 [MRK-740]
H3K4me3/GFP - western blot (PRDM9 [1]; 0.256 µM): 72.3313 % control and 76.4161 % control
H3K4me3/GFP - western blot (PRDM9 [1]; 0.64 µM): 45.8788 % control and 51.2576 % control
H3K4me3/GFP - western blot (PRDM9 [1]; 1.6 µM): 25.9658 % control and 41.0483 % control
H3K4me3/GFP - western blot (PRDM9 [1]; 4 µM): 12.0678 % control and 16.7081 % control
H3K4me3/GFP - western blot (PRDM9 [1]; 10 µM): 8.819 % control and 7.277 % control
Inhibition of H3K4 methylation in MCF7 cells, compared with HEK293T (in words) (PRDM9 [1]; 20 h): equipotent inhibitor of H3K4 methylation
Binding (Opiate µ receptor): > 50%
∆Tm, Average (n=3) (PRDM9 [2]; [3]): -0.02041 ⁰C
∆Tm, replicates (PRDM9 [2]; [3]): 0.1071 ⁰C and -0.1796 ⁰C and 0.01126 ⁰C
∆Tm, Average (n=3) (PRDM9 [2]; [4]): 0.008307 ⁰C
∆Tm, replicates (PRDM9 [2]; [4]): 0.03434 ⁰C and -0.02437 ⁰C and 0.01495 ⁰C
∆Tm, Average (n=3) (PRDM9 [2]; [5]): 0.01061 ⁰C
∆Tm, replicates (PRDM9 [2]; [5]): 0.0928 ⁰C and -0.07107 ⁰C and 0.01011 ⁰C
∆Tm, Average (n=3) (PRDM9 [2]; [6]): 0.1496 ⁰C
∆Tm, replicates (PRDM9 [2]; [6]): 0.1732 ⁰C and 0.04052 ⁰C and 0.2352 ⁰C
∆Tm, Average (n=3) (PRDM9 [2]; [7]): 0.04508 ⁰C
∆Tm, replicates (PRDM9 [2]; [7]): 0.1528 ⁰C and -0.2157 ⁰C and 0.1982 ⁰C
∆Tm, Average (n=3) (PRDM9 [2]; [8]): 0.2255 ⁰C
∆Tm, replicates (PRDM9 [2]; [8]): 0.2233 ⁰C and 0.03455 ⁰C and 0.4187 ⁰C
∆Tm, Average (n=3) (PRDM9 [2]; [9]): -0.08242 ⁰C
∆Tm, replicates (PRDM9 [2]; [9]): -0.00371 ⁰C and -0.4167 ⁰C and 0.1731 ⁰C
∆Tm, Average (n=3) (PRDM9 [2]; [10]): 0.4191 ⁰C
∆Tm, replicates (PRDM9 [2]; [10]): 0.4623 ⁰C and 0.3242 ⁰C and 0.4707 ⁰C
∆Tm, Average (n=3) (PRDM9 [2]; [11]): -0.01426 ⁰C
∆Tm, replicates (PRDM9 [2]; [11]): 0.02232 ⁰C and -0.1544 ⁰C and 0.08926 ⁰C
∆Tm, Average (n=3) (PRDM9 [2]; [12]): 0.7764 ⁰C
∆Tm, replicates (PRDM9 [2]; [12]): 0.7056 ⁰C and 0.7972 ⁰C and 0.8264 ⁰C
∆Tm, Average (n=3) (PRDM9 [2]; [13]): 0.1037 ⁰C
∆Tm, replicates (PRDM9 [2]; [13]): 0.226 ⁰C and -0.09012 ⁰C and 0.1752 ⁰C
∆Tm, Average (n=3) (PRDM9 [2]; [14]): 1.337 ⁰C
∆Tm, replicates (PRDM9 [2]; [14]): 1.344 ⁰C and 1.221 ⁰C and 1.444 ⁰C
∆Tm, Average (n=3) (PRDM9 [2]; [15]): -0.1063 ⁰C
∆Tm, replicates (PRDM9 [2]; [15]): -0.01797 ⁰C and -0.3914 ⁰C and 0.09041 ⁰C
∆Tm, Average (n=3) (PRDM9 [2]; [16]): 1.956 ⁰C
∆Tm, replicates (PRDM9 [2]; [16]): 2.017 ⁰C and 1.819 ⁰C and 2.032 ⁰C
∆Tm, Average (n=3) (PRDM9 [2]; [17]): 0.1387 ⁰C
∆Tm, replicates (PRDM9 [2]; [17]): 0.3126 ⁰C and 0.00612 ⁰C and 0.09739 ⁰C
∆Tm, Average (n=3) (PRDM9 [2]; [18]): 2.652 ⁰C
∆Tm, replicates (PRDM9 [2]; [18]): 2.731 ⁰C and 2.527 ⁰C and 2.698 ⁰C
∆Tm, Average (n=3) (PRDM9 [2]; [19]): 0.1127 ⁰C
∆Tm, replicates (PRDM9 [2]; [19]): 0.2122 ⁰C and -0.02556 ⁰C and 0.1514 ⁰C
∆Tm, Average (n=3) (PRDM9 [2]; [20]): 3.593 ⁰C
∆Tm, replicates (PRDM9 [2]; [20]): 3.459 ⁰C and 3.608 ⁰C and 3.713 ⁰C
∆Tm, Average (n=3) (PRDM9 [2]; [21]): 0.3345 ⁰C
∆Tm, replicates (PRDM9 [2]; [21]): 0.254 ⁰C and 0.2924 ⁰C and 0.4572 ⁰C
∆Tm, Average (n=3) (PRDM9 [2]; [22]): 4.481 ⁰C
∆Tm, replicates (PRDM9 [2]; [22]): 4.418 ⁰C and 4.4008 ⁰C and 4.624 ⁰C
∆Tm, Average (n=3) (PRDM9 [2]; [23]): 0.7417 ⁰C
∆Tm, replicates (PRDM9 [2]; [23]): 0.7489 ⁰C and 0.7435 ⁰C and 0.7328 ⁰C
∆Tm, Average (n=3) (PRDM9 [2]; [24]): 5.104 ⁰C
∆Tm, replicates (PRDM9 [2]; [24]): 5.051 ⁰C and 5.067 ⁰C and 5.196 ⁰C
∆Tm, Average (n=3) (PRDM9 [2]; [25]): 1.354 ⁰C
∆Tm, replicates (PRDM9 [2]; [25]): 1.288 ⁰C and 1.351 ⁰C and 1.422 ⁰C
∆Tm, Average (n=3) (PRDM9 [2]; [26]): 5.9348 ⁰C
∆Tm, replicates (PRDM9 [2]; [26]): 5.8495 ⁰C and 5.999 ⁰C and 5.956 ⁰C
